Earlier results in patent US12357645B2, “Drug combination for treatment of gastric cancer” (priority 2023, dated 2025).

Tests used:
[1] = cited from earlier work
gastric cancer = conditions: by stimulating expression of p53 and p21 (waf1/cip1); cited from earlier work

SMILES: CC(C)[C@]12O[C@H]1[C@@H]1O[C@]13[C@]1(O[C@H]1C[C@H]1C4=C(CC[C@@]13C)C(=O)OC4)[C@@H]2O [triptolide, reference compound]
- aqueous solubility [1]: limited aqueous solubility
- cell growth and apoptosis (gastric cancer): inhibit cell growth and induce apoptosis
